Experimental data from patent publication US8114871B2, “3-amido-pyrrolo[3,4-C]pyrazole-5(1H,4H,6H) carbaldehyde derivatives” (Pfizer Inc., priority 2007, dated 2012).

Biological target: Protein Kinase C beta 2 (PKCβII) (Homo sapiens, UniProt P05771)
Assay: PKCβII coupled PK/LDH spectrophotometric kinase assay (decrease of NADH absorbance at 340 nm)
Format: biochemical
Conditions: apparent Ki, Morrison fit, 0.1 mM ATP, 30° C., pH 7.4; read-out: PKCb Ki
Description: This transfer is coupled to the oxidation of p-NADH through the activities of Pyruvate Kinase (PK) and Lactate Dehydrogenase (LDH).
A typical assay was carried out on a 96-well, clear microtiter plate in a Molecular Devices spectrophotometer for 20 minutes at 30° C. in 0.1 mL of assay buffer containing 50 mM HEPES, pH 7.4, 5 nM PKC, 23 units of pyruvate kinase, 33 units of lactate dehydrogenase, 0.15 mM peptide, 0.1 mM ATP, 1 mM DTT, 4 mM PEP, 8 mM MgCl2, 0.3 mM NADH, 60 mM CaCl2, 10 mg/mL PS, 50 ng/mL PMA, 7.5% DMSO and from about 10,000 nM to 0.169 nM compound inhibitor. Stock solutions of 3-sn-phosphatidyl-L-serine (PS) and phorbol-12-myristate-13-acetate (PMA) were sonicated for 30 seconds just prior to addition to assay buffer and assays were initiated by the addition of 100 μM ATP.
Enzyme turnover values (kcat) were calculated according to […], where [E] is the total enzyme concentration. […] Morrison, J. F., Biochim. Biophys Acta 185: 269-286 (1969).

Sequence of Protein Kinase C beta 2 (PKCβII) (P05771 1-673 isoform P05771-2): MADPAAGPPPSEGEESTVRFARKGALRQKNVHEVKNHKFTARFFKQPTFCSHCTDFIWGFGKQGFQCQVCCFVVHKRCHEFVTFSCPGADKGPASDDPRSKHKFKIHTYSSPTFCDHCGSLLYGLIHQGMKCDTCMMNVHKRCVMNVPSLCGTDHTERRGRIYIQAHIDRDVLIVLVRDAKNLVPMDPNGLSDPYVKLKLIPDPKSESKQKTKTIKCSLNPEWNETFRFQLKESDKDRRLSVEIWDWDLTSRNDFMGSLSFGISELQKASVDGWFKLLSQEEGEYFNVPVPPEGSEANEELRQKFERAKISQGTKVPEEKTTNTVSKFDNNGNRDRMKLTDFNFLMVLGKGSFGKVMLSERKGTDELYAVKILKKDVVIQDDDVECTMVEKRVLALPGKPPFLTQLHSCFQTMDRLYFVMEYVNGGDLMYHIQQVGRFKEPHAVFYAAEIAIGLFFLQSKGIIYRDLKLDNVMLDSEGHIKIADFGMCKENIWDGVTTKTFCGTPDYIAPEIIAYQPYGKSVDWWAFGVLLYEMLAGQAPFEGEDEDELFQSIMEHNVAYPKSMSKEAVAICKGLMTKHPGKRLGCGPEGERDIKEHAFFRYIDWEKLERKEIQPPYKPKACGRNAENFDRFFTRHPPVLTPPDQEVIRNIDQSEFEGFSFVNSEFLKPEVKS

CCOc1cccc(C(=O)Nc2n[nH]c3c2CN(C(=O)N2C[C@@H]4CCCN4C[C@@H]2C)C3(C)C)c1 [Example E5, N-(6,6-dimethyl-5-((3S,8aS)-3-methyl-octahydropyrrolo[1,2-a]pyrazine-2-carbonyl)-1,4,5,6-tetrahydropyrrolo[3,4-c]pyrazol-3-yl)-3-ethoxybenzamide]
Ki: 0.0375 µM
